US12377110B2, “Fospropofol methods and compositions” (Epalex Corporation, priority 2019, dated 2025)

How the values were obtained:
[1] = Study No. 15-3 toxicokinetics of fospropofol and propofol in plasma; type: in vivo, Sprague-Dawley rats; conditions: for AUC(0-t): Propofol AUC0-6 hr
Description: (§1) The purpose of Study No. 15-3 (GLP) was to determine the potential toxicity of fospropofol in Sprague-Dawley rats when administered once daily by oral gavage for 14 days. […] The cause of death for the three 250 mg/kg/day group main study females found dead could not be determined, but was considered related to the pharmacodynamic effects of fospropofol, based on the time of death relative to the time of close administration, and the clinical signs recorded before death. Clinical observations during the closing period for these animals included labored breathing, prostrate, splayed hindlimbs, uncoordinated movement, decreased activity, and eyes closed.

[2] = Study No. 15-4 toxicokinetics of fospropofol and propofol in plasma; type: in vivo, Beagle dogs; conditions: for Propofol AUC0-6hr increase after 14 days compared with Day 1 / Propofol Cmax increase after 14 days compared with Day 1: 160-mg/kg
Description: The purpose of Study No. 15-4 (GLP) was to determine the potential toxicity of fospropofol in Beagle dogs when administered once daily by oral gavage for 14 days. […] Because the treatment-related clinical observations (consistent with the expected transient sedative actions of fospropofol) and effects on hematology and clinical chemistry parameters were considered nonadverse, the NOAEL was determined to be 160 mg/kg/day (3200 mg/m^2/day).

[3] = Linear regression of log fospropofol/propofol exposure (Cmax, AUC1, AUC2, AUC4) on time-to-treatment, migraine subjects vs healthy volunteers
Excerpt: (§2) Values for healthy volunteers are shown on the left.
as §2
Values for healthy Volunteers are shown on the left.
as §2, §2, §2

[4] = Study A16 Part 2: PK of a single dose of 1200 mg fospropofol disodium following a high-fat meal; type: in vivo, human
Description: Part 2 of Study A16 was a double-blind, placebo-controlled, single-close pilot study to investigate the PK, safety, and tolerability of 1200 mg of fospropofol disodium administered to healthy adult men and women following a high-fat meal.
Subjects were healthy adults (age 18-55 years inclusive, BMI 18-29.9 kg/m^2). A separate cohort of 15 subjects was randomly assigned to receive a single oral dose of either fospropofol disodium (n=12) or matching placebo (n=3) within 30 minutes (±1 minute) after the start of a standardized high-fat meal.
Subjects were admitted to the clinical unit for an overnight fast (Day −1), administered study drug on Day 1 within 30 minutes of the start a standardized high-fat meal, and remained in the clinical unit until Day 2.
Fospropofol disodium was formulated as powder in 6 HPMC capsules, each capsule containing 200 mg of fospropofol disodium (weight adjusted for water content). Placebo was administered as 6 matching capsules.

Sprague-Dawley rats [5] = test: Study No. 15-1 (non-GLP): MTD and 7-day once daily oral gavage toxicity of fospropofol disodium; type: in vivo
Excerpt: (§3) The purpose of Study No. 15-1 (non-GLP) was to determine the maximum tolerated close (MTD) of fospropofol when administered by oral gavage to Sprague-Dawley rats (Phase 1) and to evaluate the potential toxicity of fospropofol in Sprague-Dawley rats when administered once daily by oral gavage for 7 days (Phase 2).

[6] = as above; type: in vivo, Sprague-Dawley rats; conditions: rat, in vivo; oral gavage, Sprague-Dawley rats
Excerpt: as §3

Sprague-Dawley rats [7] = test: Study No. 15-3 (GLP): 14-day once daily oral gavage toxicity of fospropofol disodium; type: in vivo
Description: as §1
(§4) Pivotal GLP 14-day repeat-close toxicity studies with 7-day recovery periods were conducted in Sprague-Dawley rats (Study No. 15-3) and Beagle dogs (Study No. 15-4). […] The cause of death for these animals was considered to be related to the known pharmacodynamic effects of high doses of fospropofol, based on the time of death relative to the time of close administration, and the clinical signs recorded before death which included: labored breathing, prostrate, splayed hindlimbs, uncoordinated movement, decreased activity, and eyes closed. […] The NOAEL was determined to be 100 mg/kg/day (600 mg/m^2/day) in male and female Sprague-Dawley rats.

[8] = as above; type: in vivo, Sprague-Dawley rats; conditions: both sexes, rat, in vivo; 14 days once daily oral gavage, Sprague-Dawley rats
Description: as §1, §4

Compound: CC(C)c1cccc(C(C)C)c1O [propofol, 2,6-diisopropylphenol]
- Increase of propofol Cmax and AUC0-6hr with fospropofol dose ([1]; Days 1 and 14): approximately close-proportional
- Propofol AUC0-6hr following repeated administration ([1]; female rats): appeared to increase
- Propofol AUC0-6hr following repeated administration ([1]; male rats): did not appear to change
- AUC(0-t) ([1]; male, Sprague-Dawley, rat, plasma, po, 50 mg/kg, oral gavage fospropofol disodium, Male, 50 mg/kg, Day 1): 219 ng·h/mL
- AUC(0-t) ([1]; male, Sprague-Dawley, rat, plasma, po, 50 mg/kg, oral gavage fospropofol disodium, Male, 50 mg/kg, Day 14): 416 ng·h/mL
- Cmax ([1]; male, Sprague-Dawley, rat, plasma, po, 50 mg/kg, Propofol Cmax, oral gavage fospropofol disodium, Male, 50 mg/kg, Day 14): 301 ng/mL
- Tmax ([1]; male, Sprague-Dawley, rat, plasma, po, 50 mg/kg, Propofol Tmax, oral gavage fospropofol disodium, Male, 50 mg/kg, Day 14): 15 min
- Dependence of systemic exposure on sex ([1]; rats, 14 days oral gavage fospropofol disodium): greater exposure in females
- Propofol AUC0-6hr increase after 14 days compared with Day 1 ([2]; females): over 5 fold
- Propofol Cmax increase after 14 days compared with Day 1 ([2]; females): ~3 fold
- Propofol AUC0-6hr increase after 14 days compared with Day 1 ([2]; males): over 2 fold
- Propofol Cmax increase after 14 days compared with Day 1 ([2]; males): about 7 fold
- Tmax ([2]; Beagle, dog, plasma, po, Propofol Tmax, most groups): 5 to 60 min
- Increase of propofol Cmax and AUC0-6hr with dose ([2]; Day 1, both sexes): close proportional
- Increase of propofol Cmax and AUC0-6hr with dose ([2]; Day 14, both sexes): more than close proportional
- half-life ([2]; female, Beagle, dog, plasma, po, females): 30 to 78 min
- half-life ([2]; male, Beagle, dog, plasma, po, males): 48 to 108 min
- p of inverse linear association between log of the ratio AUC1 propofol to AUC1 fospropofol and time-to-treatment ([3]; migraine subjects): 0.150
- p of inverse linear association between log of the ratio AUC2 propofol to AUC2 fospropofol and time-to-treatment ([3]; migraine subjects): 0.157
- p of difference in distribution of log of the ratio AUC1 propofol to AUC1 fospropofol between migraine subjects and healthy volunteers ([3]; migraine subjects vs healthy volunteers): 0.0367
- Propofol mean AUC following a high-fat meal relative to fasting ([4]; 1200 mg): approximately 40%
- Propofol mean Cmax under fed conditions relative to fasting ([4]; 1200 mg): approximately 19%
- Effect of high-fat meal on exposure ([4]; 1200 mg within 30 minutes after the start of a high-fat meal): significant reduction in exposure
- Tmax ([4]; both sexes, human, plasma, oral, 1200 mg, after a high-fat meal): 120 min
- Propofol CL/F ([4]; oral fospropofol disodium 1200 mg, Fed (Cohort 8), n = 7/12, mean): 3111 L/h

Compound: CC(C)c1cccc(C(C)C)c1OCOP(=O)([O-])O.[Na+] [fospropofol disodium]
- Mortality (Sprague-Dawley rats [5]; 150 mg/kg/day, Day 7, approximately 30 minutes postdose): one 150 mg/kg/day TK female was found dead
- MTD (Sprague-Dawley rats [5]; oral gavage, Sprague-Dawley rats): 1500 mg/m^2/day
- Tolerability (Sprague-Dawley rats [5]; oral gavage, single fospropofol doses up to 300 mg/kg or 150 and 250 mg/kg/day once daily for 7 days): well tolerated at all closes
- MTD at 7 days [6]: 250 mg/kg/day
- Mortality (Sprague-Dawley rats [7]; 0, 50, 100, and 250 mg/kg/day for 14 consecutive days): treatment-related mortalities at 250 mg/kg/day
- Body weight gain (Sprague-Dawley rats [7]; 250 mg/kg/day): reduced body weight gain
- Prothrombin time (Sprague-Dawley rats [7]; 250 mg/kg/day): transient increase in prothrombin time
- Gross observations and microscopic findings (Sprague-Dawley rats [7]; 250 mg/kg/day main study females found dead): no treatment-related gross observations or microscopic findings
- NOAEL (Sprague-Dawley rats [7]; 14 days once daily oral gavage, Sprague-Dawley rats): 600 mg/m^2/day
- Mortalities (Sprague-Dawley rats [7]; high dose level (250 mg/kg/day), 14 days): 4
- Histopathology, all tissues including GIT-related (Sprague-Dawley rats [7]; up to 250 mg/kg/day): no treatment-related histopathology findings
- NOAEL at 14 days [8]: 100 mg/kg/day
